The subject of this assay is SARS-CoV-2 beta variant. Set-up: species or system BALB/C mice. The conditions noted are these: mouse, in vivo, 5 mg/kg.

For `Cn1cnc([N+](=O)[O-])c1Sc1ncnc2nc[nH]c12` [azathioprine], the “lung viral titers compared to vehicle control” value is “did not demonstrate a significant reduction in viral titers”.

On to `O=P(O)(O)OC[C@H]1O[C@@H](n2cnc3c(S)ncnc32)[C@H](O)[C@@H]1O` [thioinosinic acid], for which the “lung viral titers compared to vehicle control” value is “approximately tenfold lower”.

Values taken from paper PMC10740425, “How Deep Learning in Antiviral Molecular Profiling Identified Anti-SARS-CoV-2 Inhibitors” (Biomedicines, 2023).
